{"source": "patent US20230263786A1", "about": "“MODULATION OF DRUG-DRUG INTERACTIONS OF VADADUSTAT” (Akebia Therapeutics, Inc., priority 2020, published 2023);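 as to Tmax: crossover in fasted human subjects with four-day washout between periods, plasma glucuronide metabolite pharmacokinetics, ratios computed as metabolite over parent for AUC and Cmax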", "key": {"[1]": {"assay": "Phase 1 oral iron interaction study, Cohort 3 (fasting): dried ferrous sulfate slow release", "assay_type": "in vivo, human", "conditions": "for AUC(0-inf) / AUC(0-t) / Cmax / half-life: male, human, plasma, oral; for AUC(0-inf): read-out: AUC(0-inf), LS geometric mean; for AUC(0-t): read-out: AUC(0-last), LS geometric mean; for Cmax: read-out: Cmax, LS geometric mean; for half-life: read-out: t1/2, LS geometric mean (converted)", "source_text": "(§1) The study included 3 periods as follow: • Screening: performed within 4 weeks before the day of administration of the study drug. • Evaluation period: Cohort 1 was confined to the study site for 10-night, 11-day. Cohort 2 and Cohort 3 were confined to the study site for 7 nights and 8 days. • Post-administration tests: performed 3 days after administration of the last dose of the study drug.\nIn Cohort 3, 20 subjects were further randomized into 2 groups (10 subjects per group) and the evaluation period was divided into 2 periods during the study:\n(§2) Administration of vadadustat tablets alone: after fasting for at least 10 hours, 1 vadadustat tablet (150 mg) would be taken orally with 200 mL of water (extra water may be drunk if more is needed when taking the tablet, and the extra volume would be recorded). Subjects would fast until the end of the collection of blood samples at 4 hours after administration of the study drug. Subjects would eat lunch over a period of 20 minutes after blood samples were collected at 4 hours after administration of the study drug. After lunch, subjects would fast until dinner, when they would eat dinner over a period of 20 minutes at 10 hours after administration of the study drug. Subjects would fast from dinner until breakfast the next morning.\nas §2, with “and dried ferrous sulfate:” for “alone:”, “mg) and 2 tablets of dried ferrous sulfate (containing 210 mg of iron)” for “mg)”, “tablets,” for “tablet,”"}, "[2]": {"tested_on": "hemoglobin concentration and red blood cell count", "assay": "Hemoglobin concentration and red blood cell count after repeated dosing", "assay_type": "in vivo, rat", "conditions": "normal rats, repeated oral administration for 14 days"}, "[3]": {"assay": "Plasma protein binding, equilibrium dialysis", "assay_type": "in vitro ADME", "conditions": "human, in vitro, read-out: human plasma protein binding rate", "source_text": "The human plasma protein binding rate of this drug was higher than 99% (in vitro, equilibrium dialysis)."}, "[4]": {"assay": "Phase 1 oral iron interaction study, Cohort 1 (after meal): sodium ferrous citrate, ferric citrate hydrate", "assay_type": "in vivo, human", "conditions": "for AUC(0-inf) / AUC(0-t) / Cmax / half-life: male, human, plasma, oral; for AUC(0-inf): read-out: AUC(0-inf), LS geometric mean; for AUC(0-t): read-out: AUC(0-last), LS geometric mean; for Cmax: read-out: Cmax, LS geometric mean; for half-life: read-out: t1/2, LS geometric mean (converted)", "source_text": "as §1\nIn Cohort 1, 21 subjects were further randomized into 3 groups (7 subjects per group) and the evaluation period was divided into 3 periods during the study:\nas §2, with “hours, subjects would eat breakfast over a period of 10 minutes, then immediately after finishing the meal (5 minutes after finishing the meal),” for “hours,”, “recorded). After breakfast, subjects” for “recorded). Subjects”\nas §2, with “tablets and sodium ferrous citrate:” for “tablets alone:”, “hours, subjects would eat breakfast over a period of 10 minutes, then immediately after finishing the meal (5 minutes after finishing the meal),” for “hours,”, “mg) and 4 tablets of sodium ferrous citrate (containing 200 mg of iron)” for “mg)”, “the tablets,” for “the tablet,”, “recorded). After breakfast, subjects” for “recorded). Subjects”\nAdministration of vadadustat tablets and ferric citrate hydrate: after fasting for at least 10 hours, subjects would eat breakfast over a period of 10 minutes, then immediately after finishing the meal (5 minutes after finishing the meal), 1 vadadustat tablet (150 mg) and 8 tablets of ferric citrate hydrate (containing 2000 mg of ferric citrate) would be taken orally with 200 mL of water (extra water may be drunk if more is needed when taking the tablets, and the extra volume will be recorded). After breakfast, subjects would fast until the end of the collection of blood samples at 4 hours after administration of the study drug. After collection of blood samples at 4 hours after administration of the study drug, subjects would eat lunch over a period of 20 minutes, then immediately after finishing the meal, 8 tablets of ferric citrate hydrate (containing 2000 mg of ferric citrate) would be taken orally with 200 mL of water (extra water may be drunk if more is needed when taking the tablet, and the extra volume would be recorded). Subjects would fast from lunch to before dinner, and at 10 hours after administration of the study drug, subjects will eat dinner over a period of 20 minutes, then immediately after finishing the meal, 8 tablets of ferric citrate hydrate (containing 2000 mg of ferric citrate) would be taken orally with 200 mL of water (extra water may be drunk if more is needed when taking the tablets, and the extra volume would be recorded). Subjects would fast from dinner until breakfast the next morning."}, "clinical": {"assay": "clinical", "conditions": "male, human, plasma, oral, 450 mg", "quoted_text": "Pharmacokinetics. […] The ratio of metabolite to parent was calculated for each glucuronide metabolite for AUC(0-t); and AUC(0-inf) and Cmax.\nComparative Bioavailability. […] Factors incorporated in the model included: Sequence, Subject (Sequence), Period, and Treatment.\nTreatment of Subjects. […] All subjects are dosed on the same day for Day 1 of Confinement Period 1, and are crossed over to the alternate treatment and are dosed on the same day for Day 1 of Confinement Period 2. Both treatments are administered in a fasted state, and a four-day Washout Period separates each Confinement Period."}, "hemoglobin": {"tested_on": "hemoglobin", "assay": "Phase III clinical trial in patients with hemodialysis anemia", "assay_type": "in vivo, human", "experimental": "The incidence of adverse reactions when this drug was administered up to 24 weeks was 8.3% (2/24 cases)."}, "human PHD3": {"biological_target": "human PHD3 (Homo sapiens, UniProt Q9H6Z9)", "sequence (Q9H6Z9 whole entry)": "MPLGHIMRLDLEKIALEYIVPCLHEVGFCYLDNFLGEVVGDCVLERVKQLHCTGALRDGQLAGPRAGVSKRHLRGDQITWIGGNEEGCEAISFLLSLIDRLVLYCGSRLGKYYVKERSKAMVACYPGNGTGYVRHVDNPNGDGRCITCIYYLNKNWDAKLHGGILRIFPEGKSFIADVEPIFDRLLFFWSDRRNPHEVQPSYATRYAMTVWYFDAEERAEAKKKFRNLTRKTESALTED", "assay": "PHD inhibitory action, PHD3", "assay_type": "biochemical", "conditions": "in vitro"}, "[5]": {"conditions": "150 mg with dried ferrous sulfate slow release (210 mg iron), fasting"}, "[6]": {"conditions": "150 mg with ferric citrate hydrate (2000 mg ferric citrate)"}, "[7]": {"conditions": "150 mg with sodium ferrous citrate (200 mg iron)"}, "[8]": {"conditions": "150 mg, Compound 1 150 mg alone"}}}
{"smiles": "O=C(O)CNC(=O)c1ncc(-c2cccc(Cl)c2)cc1O", "note": "[Compound 1, {[5-(3-chlorophenyl)-3-hydroxypyridine-2-carbonyl]amino}acetic acid]", "values": [{"measurement": "Kel, LS geometric mean", "setting": "[1]; [5]", "result": 0.14, "unit": "h⁻¹"}, {"measurement": "Kel, LS geometric mean", "setting": "[1]; Compound 1 150 mg alone, fasting", "result": 0.13, "unit": "h⁻¹"}, {"measurement": "AUC(0-inf)", "setting": "[1]; 150 mg", "result": 128, "unit": "µg·h/mL"}, {"measurement": "AUC(0-t)", "setting": "[1]; 150 mg", "result": 124, "unit": "µg·h/mL"}, {"measurement": "Cmax", "setting": "[1]; 150 mg", "result": 26.5, "unit": "µg/mL"}, {"measurement": "half-life", "setting": "[1]; 150 mg", "result": 5.17, "unit": "h"}, {"measurement": "AUC(0-inf)", "setting": "[1]; [5]", "result": 13.2, "unit": "µg·h/mL"}, {"measurement": "AUC(0-t)", "setting": "[1]; [5]", "result": 12, "unit": "µg·h/mL"}, {"measurement": "Cmax", "setting": "[1]; [5]", "result": 2.14, "unit": "µg/mL"}, {"measurement": "half-life", "setting": "[1]; [5]", "result": 4.8, "unit": "h"}, {"measurement": "hemoglobin concentration", "setting": "[2]", "result": "increasing"}, {"measurement": "red blood cell count", "setting": "[2]", "result": "increasing"}, {"measurement": "fraction unbound", "setting": "[3]", "result": "< 0.01"}, {"measurement": "Kel, LS geometric mean", "setting": "[4]; [6]", "result": 0.16, "unit": "h⁻¹"}, {"measurement": "Kel, LS geometric mean", "setting": "[4]; [7]", "result": 0.13, "unit": "h⁻¹"}, {"measurement": "Kel, LS geometric mean", "setting": "[4]; Compound 1 150 mg alone", "result": 0.13, "unit": "h⁻¹"}, {"measurement": "AUC(0-inf)", "setting": "[4]; [6]", "result": 32.4, "unit": "µg·h/mL"}, {"measurement": "AUC(0-t)", "setting": "[4]; [6]", "result": 31.1, "unit": "µg·h/mL"}, {"measurement": "Cmax", "setting": "[4]; [6]", "result": 5.18, "unit": "µg/mL"}, {"measurement": "half-life", "setting": "[4]; [6]", "result": 4.26, "unit": "h"}, {"measurement": "AUC(0-inf)", "setting": "[4]; [7]", "result": 46.6, "unit": "µg·h/mL"}, {"measurement": "AUC(0-t)", "setting": "[4]; [7]", "result": 44.4, "unit": "µg·h/mL"}, {"measurement": "Cmax", "setting": "[4]; [7]", "result": 6.96, "unit": "µg/mL"}, {"measurement": "half-life", "setting": "[4]; [7]", "result": 5.34, "unit": "h"}, {"measurement": "AUC(0-inf)", "setting": "[4]; [8]", "result": 104, "unit": "µg·h/mL"}, {"measurement": "AUC(0-t)", "setting": "[4]; [8]", "result": 99.2, "unit": "µg·h/mL"}, {"measurement": "Cmax", "setting": "[4]; [8]", "result": 14.3, "unit": "µg/mL"}, {"measurement": "half-life", "setting": "[4]; [8]", "result": 5.32, "unit": "h"}, {"measurement": "AUC(0-inf)", "setting": "clinical", "result": 263, "unit": "µg·h/mL"}, {"measurement": "AUC(0-t)", "setting": "clinical", "result": 253, "unit": "µg·h/mL"}, {"measurement": "Cmax", "setting": "clinical", "result": 45.3, "unit": "µg/mL"}, {"measurement": "Tmax", "setting": "clinical", "result": 3, "unit": "h"}, {"measurement": "incidence of adverse reactions", "setting": "hemoglobin; administered up to 24 weeks", "result": 8.3, "unit": "%"}, {"measurement": "Average hemoglobin level, After administration", "setting": "hemoglobin; at 20 and 24 weeks, 150-600 mg once daily, adjusted average ± standard error", "result": "10.75 ± 0.19"}, {"measurement": "Average hemoglobin level, Before administration", "setting": "hemoglobin; hemodialysis anemia patients, baseline, mean ± standard deviation", "result": "9.30 ± 0.67"}, {"measurement": "IC50", "setting": "human PHD3", "result": 7.63, "unit": "nM"}]}
